Test results from US5948814A, “Genistein for the treatment of cystic fibrosis” (priority 1998, dated 1999).

biological target: T1, ΔF508-CFTR (Homo sapiens, UniProt P13569, DEL508-508); assay: Patch clamp, cell-attached patches, macroscopic current, NIH/3T3-ΔF508 cells; settings: 200 μM CPT-cAMP after 10 μM forskolin
Protocol: FIGS. 3A and B show recordings of the potentiation of wild-type (wt) and ΔF508-CFTR channel activity by genistein. Channels in cell-attached patches from NIH/3T3-CFTR (FIG. 3A) and NIH/3T3-ΔF508cells (FIG. 3B), were stimulated as indicated with 10 μM forskolin and 50μ genestein.
Cell culture: NIH/3T3-CFTR, NIH/3T3-ΔF508, and NIH/3T3 mock cells (generous gifts from Dr. Richard Mulligan of Children's Hospital and Medical Center, Harvard Medical School) were grown as described [Bradbury et al., 1992] at 37° C. and 5% CO2 in Dulbecco's modified Eagle's medium-H21 supplemented with 10% new-born calf serum, 4 mM glutamine, 25 mM glucose, 100 μg/ml penicillin, 100 μg/ml streptomycin, and 50 μg/ml gentamicin. Cells were maintained in T75 flasks, passaged at 90-95% confluency, and split one to four. For measurements of I^- efflux and in vivo phosphorylation, cells were seeded onto 35-mm dishes at […]. For patch-clamp experiments, cells were grown on coverglass chips in 35-mm culture dishes. Media were replaced 24 hours after plating and thereafter every 48 hours. In all cases, media were changed on the day before I^- efflux studies, NIH/3T3-ΔF508 cells were transferred to 27° C. three days before use, and 1 day prior to study, media were supplemented with 5 mM butyrate. For patch-clamp studies, where a constant level of functional ΔF508-CFTR was not essential, NIH/3T3-ΔF508 cells were cultured at 27° C. for 2-6 days before use. Calu-3 cells were grown and maintained as described by Hunter [1995].
Electrophysiology: CFTR channel currents were recorded at room temperature (~22° C.) with a patch-clamp amplifier (EPC-9, Heka Electronic), filtered at 100 Hz with a built-in three-pole Bessel filter, and stored on videotapes. Data were subsequently refiltered at 25 Hz with an eight-pole Bessel filter (Frequency Device, Havervill, Mass.) and captured onto a hard disk at a sampling rate of 50 Hz. […] Patch-clamp electrodes were made from Corning 7052 glass capillaries (Warner Instrument, Hammed, Conn.). The pipette resistance was usually 3-5 M.OMEGA., and the seal resistance was >20 G.OMEGA.. The pipette solution contained (in mM) 140 N-methyl-D-glucamine chloride (NMDG-C1), 2 MgCl2, 5Ca Cl2, and 10 HEPES (pH 7.4 with NMDG). The superfusion solution contained (in mM) 150 […], 2 MgCl2, 1 EGTA, 5 glucose, and 5 HEPES (pH 7.4 with NaOH). […]
Statistics: Mean currents and variance were estimated with Igor (Wavemetrics, Lake Oswego, Oreg.). […] Po was calculated from patches containing a single channel by dividing the open channel current amplitude with the mean-current amplitude. […] Calculated values are presented as means±SE. […]

T1 sequence (P13569 with tags, fused parts or gaps DEL508-508): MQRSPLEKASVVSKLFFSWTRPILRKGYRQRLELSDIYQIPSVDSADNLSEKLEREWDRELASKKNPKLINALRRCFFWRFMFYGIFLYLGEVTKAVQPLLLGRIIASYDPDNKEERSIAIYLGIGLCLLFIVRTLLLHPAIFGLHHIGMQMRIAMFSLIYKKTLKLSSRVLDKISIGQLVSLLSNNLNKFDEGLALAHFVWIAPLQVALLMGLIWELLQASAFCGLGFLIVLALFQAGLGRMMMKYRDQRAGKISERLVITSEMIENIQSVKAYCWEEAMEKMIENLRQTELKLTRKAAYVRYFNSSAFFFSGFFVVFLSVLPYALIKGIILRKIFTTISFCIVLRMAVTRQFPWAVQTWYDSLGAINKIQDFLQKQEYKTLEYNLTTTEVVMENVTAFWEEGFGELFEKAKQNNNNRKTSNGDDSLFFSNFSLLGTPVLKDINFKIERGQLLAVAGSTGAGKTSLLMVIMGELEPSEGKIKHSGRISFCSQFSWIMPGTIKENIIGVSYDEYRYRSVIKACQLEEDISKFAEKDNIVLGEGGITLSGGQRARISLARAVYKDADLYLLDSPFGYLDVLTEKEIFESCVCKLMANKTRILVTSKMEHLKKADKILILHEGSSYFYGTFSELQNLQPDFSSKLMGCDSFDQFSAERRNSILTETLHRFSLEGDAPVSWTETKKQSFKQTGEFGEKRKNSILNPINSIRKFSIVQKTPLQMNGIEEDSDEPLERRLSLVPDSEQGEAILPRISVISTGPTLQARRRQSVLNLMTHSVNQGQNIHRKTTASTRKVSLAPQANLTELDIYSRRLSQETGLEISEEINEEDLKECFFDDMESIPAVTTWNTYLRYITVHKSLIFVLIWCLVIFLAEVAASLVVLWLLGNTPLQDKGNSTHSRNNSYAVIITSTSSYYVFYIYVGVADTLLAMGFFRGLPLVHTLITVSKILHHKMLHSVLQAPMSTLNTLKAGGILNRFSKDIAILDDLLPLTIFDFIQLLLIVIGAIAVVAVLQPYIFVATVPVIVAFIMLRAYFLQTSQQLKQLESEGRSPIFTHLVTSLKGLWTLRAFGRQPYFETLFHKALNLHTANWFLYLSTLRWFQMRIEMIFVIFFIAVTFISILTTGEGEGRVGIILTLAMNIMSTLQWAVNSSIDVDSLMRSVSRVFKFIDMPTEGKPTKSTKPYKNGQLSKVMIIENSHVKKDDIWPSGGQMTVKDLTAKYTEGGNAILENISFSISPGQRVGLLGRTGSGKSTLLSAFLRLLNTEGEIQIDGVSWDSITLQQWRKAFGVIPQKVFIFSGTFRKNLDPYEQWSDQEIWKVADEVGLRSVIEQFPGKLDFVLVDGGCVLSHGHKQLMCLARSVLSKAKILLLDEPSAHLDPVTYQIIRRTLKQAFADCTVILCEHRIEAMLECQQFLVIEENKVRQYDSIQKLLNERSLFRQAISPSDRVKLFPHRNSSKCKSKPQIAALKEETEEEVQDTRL

SMILES	effect on mean-current amplitude of forskolin-stimulated cells
Nc1ncnc2c1nc(Sc1ccc(Cl)cc1)n2[C@@H]1O[C@@H]2COP(=O)(O)O[C@H]2[C@H]1O [CPT-cAMP, 8-(4-chlorophenylthio)-cAMP, reference compound]	failed to increase the mean-current amplitude

tested on: CFTR; assay: Other protein tyrosine kinase inhibitors, enhancement of CFTR activity; format: cell-based; settings: methodology of Example 1
Protocol: Based on the results of Example 1 other protein tyrosine kinase inhibitors were tested using the methodology of Example 1.

SMILES	enhancement of CFTR activity
O=c1c(O)c(-c2ccc(O)c(O)c2)oc2cc(O)cc(O)c12 [quercetin]	failed to enhance CFTR activity

biological target: T1, ΔF508-CFTR; assay: Other protein tyrosine kinase inhibitors, activation of ΔF508-CFTR; format: cell-based; design: expressed in transfected cells; host or cells: NIH/3T3 cells, stably transfected (NIH/3T3-ΔF508, gift of Dr. Richard Mulligan); settings: not given

SMILES	ΔF508-CFTR stimulation activity among protein tyrosine kinase inhibitors
Nc1ccc(-c2cc(=O)c3cc(O)ccc3o2)cc1 [aminogenistein, 4'-amino-6-hydroxyflavone]	is the only protein tyrosine kinase inhibitor that has such an effect

same assay, conditions: methodology of Example 1

activation of ΔF508-CFTR	SMILES
failed to activate ΔF508-CFTR	CCOc1cc(C=C(C#N)C(N)=O)cc(CSc2ccccc2)c1O [ST638]
failed to activate ΔF508-CFTR	O=c1c(-c2ccc(O)cc2)coc2cc(O)ccc12 [daidzein]
failed to activate ΔF508-CFTR	COc1c(C=O)c(O)cc2c1C(=O)c1ccccc1C2=O [damnacanthal]
failed to activate ΔF508-CFTR	Cc1cc(O)c2c(c1)C(=O)c1cc(O)cc(O)c1C2=O [emodin]
failed to activate ΔF508-CFTR	O=C(O)c1cc(N(Cc2ccccc2O)Cc2cc(O)ccc2O)ccc1O [lavendustin A]
failed to activate ΔF508-CFTR	O=C(O)c1cc(N(Cc2ccccc2O)Cc2ccccc2O)ccc1O [lavendustin B]
failed to activate ΔF508-CFTR	COC(=O)c1cc(NCc2cc(O)ccc2O)ccc1O [lavendustin C methyl ester]
failed to activate ΔF508-CFTR	Oc1cc(O)cc(/C=C/c2ccc(O)c(O)c2)c1 [piceatannol]

SMILES	activation of ΔF508-CFTR
CC(=O)OCOC(c1ccc2ccccc2c1)P(=O)(OCOC(C)=O)OCOC(C)=O (stereo not drawn) [HNMP-A (AM)^3]	failed to activate ΔF508-CFTR
Cc1ccc(-c2nn(C(C)(C)C)c3ncnc(N)c23)cc1 [PP1]	failed to activate ΔF508-CFTR
COC(=O)/C=C/c1cc(O)ccc1O [erbstatin analogue]	failed to activate ΔF508-CFTR
COC1=C2C[C@@H](C)C[C@H](OC)[C@H](O)[C@@H](C)/C=C(\C)[C@H](OC(N)=O)[C@@H](OC)/C=C\C=C(/C)C(=O)NC(=CC1=O)C2=O [geldanamycin]	failed to activate ΔF508-CFTR
COC1C=CC=C(C)C(=O)NC2=CC(=O)C=C(C2=O)C(OC)C(C)CC(OC)C(OC)C(C)C=C(C)C1OC(N)=O (stereo not drawn) [herbimycin A]	failed to activate ΔF508-CFTR

biological target: T1, ΔF508-CFTR; assay: CFTR gating in excised inside-out patches, NIH/3T3-ΔF508 cells; settings: ATP without genistein; stated for both wt- and ΔF508-CFTR
Protocol: (§1) FIGS. 9A and B are recordings of the effects of genistein on CFTR gating in excised inside-out patches from NIH/3T3-CFTR or NIH/3T3-ΔF508 cells. CFTR channels were activated by 10 μM forskolin +20 nM calyculin A before excision into an inside-out configuration. Presence of calyculin A helps to slow channel dephosphorylation. (A): continuous 14.5 minute recording of a patch containing wt-CFTR. Expanded traces are 22 seconds in length. ATP (500 μM) with or without 20 μM genistein was present as indicated. (B): 2 traces of 44 seconds in length of an excised inside-out patch with CFTR-ΔF508.
(§2) Electrophysiology: CFTR channel currents were recorded at room temperature (~22° C.) with a patch-clamp amplifier (EPC-9, Heka Electronic), filtered at 100 Hz with a built-in three-pole Bessel filter, and stored on videotapes. Data were subsequently refiltered at 25 Hz with an eight-pole Bessel filter (Frequency Device, Havervill, Mass.) and captured onto a hard disk at a sampling rate of 50 Hz. […] Patch-clamp electrodes were made from Corning 7052 glass capillaries (Warner Instrument, Hammed, Conn.). The pipette resistance was usually 3-5 M.OMEGA., and the seal resistance was >20 G.OMEGA.. The pipette solution contained (in mM) 140 N-methyl-D-glucamine chloride (NMDG-C1), 2 MgCl2, 5Ca Cl2, and 10 HEPES (pH 7.4 with NMDG). The superfusion solution contained (in mM) 150 […], 2 MgCl2, 1 EGTA, 5 glucose, and 5 HEPES (pH 7.4 with NaOH). In excised inside-out patch experiments, the bath solution contained (in mM) 130 MNDG-Cl, 10 EGTA, 10 HEPES, 20 tetraethylammonium chloride, 8 Tris, and 2 MgCl2 (pH 7.4 with NMDG). Pipette potential was held at 50 mV relative to the bath. Downward deflections represent channel opening.
(§3) Channels were first activated in cell-attached patches with forskolin plus calyculin A, a membrane-permeant phosphatase inhibitor [Suganuma et al., 1991]. Patches were then excised into an inside-out configuration.

SMILES	channel open time
Nc1ncnc2c1ncn2[C@@H]1O[C@H](COP(=O)(O)OP(=O)(O)OP(=O)(O)O)[C@@H](O)[C@H]1O [ATP, reference compound]	302±2 milliseconds

biological target: wt-CFTR (Homo sapiens, UniProt P13569); assay: not given; settings: ATP without genistein; stated for both wt- and ΔF508-CFTR
Sequence (P13569 whole entry): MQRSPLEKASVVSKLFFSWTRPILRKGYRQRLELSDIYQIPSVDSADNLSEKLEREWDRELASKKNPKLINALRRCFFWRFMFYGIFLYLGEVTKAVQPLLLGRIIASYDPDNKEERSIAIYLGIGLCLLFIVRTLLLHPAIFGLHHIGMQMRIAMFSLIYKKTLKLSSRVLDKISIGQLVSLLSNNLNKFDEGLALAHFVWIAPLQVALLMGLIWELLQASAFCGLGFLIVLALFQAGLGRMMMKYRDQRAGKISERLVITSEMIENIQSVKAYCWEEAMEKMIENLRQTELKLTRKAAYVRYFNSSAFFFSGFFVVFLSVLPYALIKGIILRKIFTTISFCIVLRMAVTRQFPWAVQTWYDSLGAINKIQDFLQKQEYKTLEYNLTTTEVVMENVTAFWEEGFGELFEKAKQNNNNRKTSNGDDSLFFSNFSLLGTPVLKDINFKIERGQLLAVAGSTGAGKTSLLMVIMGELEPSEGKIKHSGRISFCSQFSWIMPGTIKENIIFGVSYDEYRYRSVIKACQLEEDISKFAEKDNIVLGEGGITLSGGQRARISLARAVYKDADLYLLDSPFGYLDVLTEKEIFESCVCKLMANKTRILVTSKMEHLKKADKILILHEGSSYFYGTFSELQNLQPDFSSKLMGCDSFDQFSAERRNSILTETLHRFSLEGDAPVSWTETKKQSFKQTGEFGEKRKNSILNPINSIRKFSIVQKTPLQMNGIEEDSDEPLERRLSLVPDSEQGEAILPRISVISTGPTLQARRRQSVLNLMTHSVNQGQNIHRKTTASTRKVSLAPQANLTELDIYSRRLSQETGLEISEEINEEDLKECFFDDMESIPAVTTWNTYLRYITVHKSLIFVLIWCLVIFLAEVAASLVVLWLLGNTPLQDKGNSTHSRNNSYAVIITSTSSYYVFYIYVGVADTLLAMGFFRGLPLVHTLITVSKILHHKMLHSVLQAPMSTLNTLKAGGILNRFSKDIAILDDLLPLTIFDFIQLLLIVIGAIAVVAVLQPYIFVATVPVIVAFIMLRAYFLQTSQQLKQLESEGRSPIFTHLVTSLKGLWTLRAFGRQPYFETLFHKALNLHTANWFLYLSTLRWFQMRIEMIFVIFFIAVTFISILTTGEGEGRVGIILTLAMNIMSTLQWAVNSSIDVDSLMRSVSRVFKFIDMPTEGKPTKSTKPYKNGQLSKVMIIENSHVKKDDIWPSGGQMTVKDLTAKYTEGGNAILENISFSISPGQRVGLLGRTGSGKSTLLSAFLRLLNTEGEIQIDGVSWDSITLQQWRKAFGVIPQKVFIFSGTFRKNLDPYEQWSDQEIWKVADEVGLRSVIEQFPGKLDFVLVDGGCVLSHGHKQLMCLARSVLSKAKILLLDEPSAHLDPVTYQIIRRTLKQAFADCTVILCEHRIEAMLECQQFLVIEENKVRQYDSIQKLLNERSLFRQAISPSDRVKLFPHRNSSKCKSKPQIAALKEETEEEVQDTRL
Protocol: as §1, §2, §3

SMILES	channel open time
Nc1ncnc2c1ncn2[C@@H]1O[C@H](COP(=O)(O)OP(=O)(O)OP(=O)(O)O)[C@@H](O)[C@H]1O [ATP, reference compound]	302±2 milliseconds
